Experimental findings from BindingDB's records for doi:10.1016/s0960-894x(02)01041-7 (Seoul National University, 2003) are described below.

In this test the target is HT-29 cell line (Homo sapiens). Put plainly: In vitro antiproliferative activity of compound against HT-29 (human colon caner ) cell line was determined by SRB assay. A general note: In SRB staining, fixed cells bind dye roughly in proportion to their protein.

Usually IC50 stands for the midpoint of a concentration-inhibition curve.

For `N#Cc1ccc(C=O)nc1SCc1c(Cl)cccc1Cl` [2-(2,6-Dichloro-benzylsulfanyl)-6-formyl-nicotinonitrile], the half-inhibitory concentration (IC50) is 113 µM.
On to `O=Cc1cccc(C(=O)Sc2ccc(Cl)c(Cl)c2)n1` [6-Formyl-pyridine-2-carbothioic acid S-(3,4-dichloro-phenyl) ester], for which inhibition was half-maximal at 33.1 µM (IC50).
